Reference: patent US6900239B2, “Tumor chemopotentiation using isocoumarin derivatives” (ILWZ ILEX Products, Inc., priority 2000, dated 2005)

Tests used:
[1] = tested on: PC6; assay: Cell growth (WST-1) in the presence of NM-3; assay type: cell-based; conditions: Homo sapiens, PC-6, 72 h; 3 days culture with NM-3
[2] = tested on: MM1.S human multiple myeloma cells; assay: Cell viability by MTT assay; assay type: cell-based
Procedure: NM-3 was dissolved in Mg^2+ and Ca^2+ free phosphate buffered saline (PBS) by adding appropriate volume of 10 N NaOH (final pH<7.0). DEX was dissolved in absolute ethanol and diluted with PBS. Final concentration of ethanol in the culture medium was 0.5% or less. DOX was dissolved in PBS.
The human multiple myeloma cell line MM1.S was maintained in RPMI1640 medium supplemented with 10% fetal bovine serum, 100 units/ml penicillin, and 100 μg/ml streptomycin at 37° C. in an atmosphere of 5% CO2 in air. Cells (3×10^4 cells/well) were seeded in 96 well-plates and incubated with increasing concentrations of DEX or DOX in the presence or absence of NM-3. NM-3 was added at concentrations of 0, 50, 100 and 200 μg/ml 2 hours before the addition of DOX or DEX. After 24 hours of DOX or DEX exposure, 10 μl of MTT reagent (Roche Molecular Biochemicals, final concentration 0.5 mg/ml) was added to each well and allowed to incubate for 4 hours. After the incubation, 100 μl of solubilization solution (10% sodium dodecyl sulfate in 0.01M HCl) was added to each well and allowed to incubate overnight. Optical density at 565 nm was determined using a spectrophotometer (Molecular Devices Corp.).

[3] = tested on: MKN28; assay: Cell growth (WST-1) in the presence of NM-3; assay type: cell-based; conditions: Homo sapiens, MKN-28, 72 h; 3 days culture; value somewhat low due to the influence of DMSO
[4] = tested on: B16-BL6 melanoma cells; assay: Experimental tumor metastasis (lung colonies); assay type: in vivo, BDF1 mice; conditions: for Inhibition (%): days 1~13; for Number of lung metastases (Mean ± S.D.): days 1~13, counted day 14
Description: To determine the antitumor effect of NM-3 on metastatic tumor growth, B16-BL6 melanoma cells (2×10^4 cells per mouse) were transplanted into BDF1 mice (female, 5 weeks old) via the tail vein. NM-3 was continuously administered via the oral route for 13 days following transplantation of the tumor cells. On day 14, the lungs were excised and fixed, and the metastatic colony numbers were counted.

[5] = tested on: human tumor cells and normal mouse cells; assay: Cell growth (WST-1), summary over all cell lines; assay type: cell-based
Procedure: (§1) To determine the extent to which NM-3 [2-(8-hydroxy-6-methoxy-1-oxo-1H-2-benzopyran-3-yl) propionic acid] inhibited the proliferation of, or was cytotoxic toward, human tumor cells and normal mouse cells, a variety of cell lines were grown in the presence of NM-3. The human cell lines used were K562 (leukemia cells), HT29 (colon tumor cells) HT1080 (reticulum blast sarcoma cells), and MCF7 (breast tumor cells). The mouse cells used were NIH3T3 cells (fibroblasts). All cell lines were cultured in 96-well plates to a density of 2-5×10^3 cells/well. Culture medium (RPMI 1640 plus 10% FBS) alone or containing NM-3 at one of several concentrations tested was then added to the cultures which were allowed to grow for an additional 3 days. To assess cell growth, 10 μl of WST-1 reagent (a chromogenic substrate for living cells) was added to each well and incubation continued for 3 hrs at 37° C. Absorbance at 450 nm was then determined using a plate reader.

[6] = tested on: Seg-1 tumors; assay: NM-3 and ionizing radiation, tumor growth; assay type: in vivo, C57BL/6 nude mice
Procedure: (§2) The effects of NM-3 and IR on tumor growth were assessed in Lewis Lung Carcinoma (LLC), Seg-1, and SQ-20B tumors implanted in C57BL/6 nude mice.
Seg-1 tumors in the control group and the NM-3-treated group grew to 6.30±0.42 and 6.74±0.62 times original volume by day 15 at which time the animals were sacrificed due to tumor burden. Tumors in the IR (4 doses of 5 Gy) group initially regressed (0.64±0.03 times original volume, day 7) and then regrew (1.83±0.11, day 15). […] (FIG. 8B).

[7] = tested on: K562 (leukemia cells); assay: Cell growth (WST-1) in the presence of NM-3; assay type: cell-based; conditions: Homo sapiens, K562, 72 h; 3 days culture with NM-3
Procedure: as §1

[8] = tested on: HT29 (colon tumor cells); assay: Cell growth (WST-1) in the presence of NM-3; assay type: cell-based; conditions: Homo sapiens, HT-29, 72 h; 3 days culture with NM-3
Procedure: as §1

[9] = tested on: NIH3T3 cells (fibroblasts); assay: Cell growth (WST-1) in the presence of NM-3; assay type: cell-based; conditions: Mus musculus, NIH3T3, 72 h; 3 days culture with NM-3
Procedure: as §1

[10] = tested on: MCF7 (breast tumor cells); assay: Cell growth (WST-1) in the presence of NM-3; assay type: cell-based; conditions: Homo sapiens, MCF7, 72 h; 3 days culture with NM-3
Procedure: as §1

[11] = tested on: HT1080 (reticulum blast sarcoma cells); assay: Cell growth (WST-1) in the presence of NM-3; assay type: cell-based; conditions: Homo sapiens, HT-1080, 72 h; 3 days culture with NM-3
Procedure: as §1

[12] = tested on: SQ-20B tumors; assay: NM-3 and ionizing radiation, tumor growth; assay type: in vivo, C57BL/6 nude mice
Procedure: as §2
In experiments conducted using SQ-20B tumors, control tumors grew to 5.2±0.94 times original volume by day 20. […] Animals in these two groups were subsequently sacrificed because of tumor burden. […] By day 38, IR treated tumors regrew to twice original volume.

[13] = NM-3 combined with IR (4 doses of 5 Gy)

COc1cc(O)c2c(=O)oc(C(C)C(=O)O)cc2c1 (stereo not drawn) [NM-3, 2-(8-hydroxy-6-methoxy-1-oxo-1H-2-benzopyran-3-yl) propionic acid]
IC50 [1]: > 500 mg/L | Potentiation of DEX-induced cell death ([2]; NM-3 50-200 μg/ml added 2 hours before DEX, 24 hours): potentiated DEX-induced cell death | Cell viability ([2]; NM-3 alone, 50-200 μg/ml): only slightly decreased the cell viability | IC50 [3]: 175 mg/L | Inhibition (%) ([4]; 0.08 mg/kg p.o.): −5.3% | Number of lung metastases (Mean ± S.D.) ([4]; 0.08 mg/kg p.o.): 88.7 ± 16.1 | Inhibition (%) ([4]; 0.31 mg/kg p.o.): 24.0% | Number of lung metastases (Mean ± S.D.) ([4]; 0.31 mg/kg p.o.): 64.0 ± 23.8 | Inhibition (%) ([4]; 1.25 mg/kg p.o.): 13.8% | Number of lung metastases (Mean ± S.D.) ([4]; 1.25 mg/kg p.o.): 72.6 ± 20.6 | Inhibition (%) ([4]; 5.0 mg/kg p.o.): 18.8% | Number of lung metastases (Mean ± S.D.) ([4]; 5.0 mg/kg p.o.): 68.4 ± 16.9 | Number of pleural metastatic foci versus control ([4]; 0.08 to 5 mg/kg p.o.): reduction in the number of pleural metastatic foci | IC50 [5]: > 100 mg/L | Tumor volume ([6]; NM-3 alone, day 15): 6.74±0.62 times original volume | Growth delay compared to IR alone group [6, 13]: 3 days | Growth delay compared to the control group [6, 13]: 14 days | Mean tumor volume compared with IR alone ([6]; NM-3 combined with IR (4 doses of 5 Gy), days 15, 17, 19, 21 and 23): significantly reduced mean tumor volume | IC50 [7]: 250 mg/L | IC50 [8]: > 300 mg/L | IC50 [9]: > 100 mg/L | IC50 [10]: 223 mg/L | IC50 [11]: 300 mg/L | Tumor volume ([12]; NM-3 alone, day 20): 4.3±1.03 times original volume | Tumor size ([12]; NM-3 and IR (65 Gy), by day 6): doubled in size | Tumor regrowth ([12]; NM-3 and IR (65 Gy), by day 38, p=0.006 vs IR alone): failed to reach original volume | Tumor volume, % of original volume ([12]; NM-3 and IR (65 Gy), day 23): 77%
